Each compound was assayed against KRas G12C (Homo sapiens, UniProt P01116, G12C) (assay: Cellular inhibition of KRas G12C measured by Phospho-ERK in NCI-H358 cells). Settings: pERK(Thr202/Tyr204) normalized with GAPDH, NCI-H358 cells, 3 hours; read-out: IC50.
Format: cell-based
Method in brief: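 NCI-H358 cells were allowed to attach for 8-12 hours, then exposed to compounds for 3 hours at 0.5% DMSO final. After formaldehyde fixation and methanol permeabilization, phospho-ERK (Thr202/Tyr204) was detected by in-cell immunofluorescence and normalized to GAPDH; IC50 came from a 4-parameter fit of percent-of-DMSO values.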

Chain of KRas G12C (P01116 1-188 isoform P01116-2 G12C): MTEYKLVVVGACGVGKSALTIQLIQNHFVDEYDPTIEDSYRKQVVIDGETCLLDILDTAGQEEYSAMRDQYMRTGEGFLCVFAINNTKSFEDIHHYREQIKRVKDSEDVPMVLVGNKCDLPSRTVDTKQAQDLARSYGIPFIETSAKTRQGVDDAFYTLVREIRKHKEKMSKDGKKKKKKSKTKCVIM

IC50	Structure (SMILES)
0.1 to 1000 nM	C=CC(=O)N1CCN(c2nc(OC[C@@H]3CCCN3C)nc3c2CCN(c2c(F)ccc4ccccc24)C3)CC1CC#N (stereo partly drawn) [Example 311, 2-(1-acryloyl-4-(7-(2-fluoronaphthalen-1-yl)-2-(((S)-1-methylpyrrolidin-2-yl)methoxy)-5,6,7,8-tetrahydropyrido[3,4-d]pyrimidin-4-yl)piperazin-2-yl)acetonitrile]
0.1 to 1000 nM	C=CC(=O)N1CCN(c2nc(OC[C@@H]3CCCN3C)nc3c2CCN(c2cccc(Cl)c2C(F)(F)F)C3)CC1CC#N (stereo partly drawn) [Example 277, 2-(1-acryloyl-4-(7-(3-chloro-2-(trifluoromethyl)phenyl)-2-(((S)-1-methylpyrrolidin-2-yl)methoxy)-5,6,7,8-tetrahydropyrido [3,4-d]pyrimidin-4-yl)piperazin-2-yl)acetonitrile]
> 1000 nM	C=CC(=O)N1CCN(c2ncnc3c2CC(C)N(c2cc(O)cc4ccccc24)C3)CC1 (stereo not drawn) [Example 6, 1-(4-(7-(3-hydroxynaphthalen-1-yl)-6-methyl-5,6,7,8-tetrahydropyrido[3,4-d]pyrimidin-4-yl)piperazin-1-yl)prop-2-en-1-one]
0.1 to 1000 nM	C=CC(=O)N1CCN(c2nc(OC(C)CCN(C)C)nc3c2CCN(c2cc(O)cc4ccccc24)C3)CC1 (stereo not drawn) [Example 21, 1-(4-(2-((4-(dimethylamino)butan-2-yl)oxy)-7-(3-hydroxynaphthalen-1-yl)-5,6,7,8-tetrahydropyrido[3,4-d]pyrimidin-4-yl)piperazin-1-yl)prop-2-en-1-one]
0.1 to 1000 nM	C=CC(=O)N1CCN(c2nc(OC[C@@H]3CCCN3C)nc3c2CCN(c2c(C)c(C)cc4[nH]ncc24)C3)CC1 [Example 453, 1-[4-[7-(5,6-dimethyl-1H-indazol-4-yl)-2-[[(2S)-1-methylpyrrolidin-2-yl]methoxy]-6,8-dihydro-5H-pyrido[3,4-d]pyrimidin-4-yl]piperazin-1-yl]prop-2-en-1-one]
> 1000 nM	C=CC(=O)N1CCN(c2ncnc3c2CCN(c2cncc4ccccc24)C3)CC1 [Example 69, 1-(4-(7-(isoquinolin-4-yl)-5,6,7,8-tetrahydropyrido[3,4-d]pyrimidin-4-yl)piperazin-1-yl)prop-2-en-1-one]
> 1000 nM	C=CC(=O)N1CC2(C1)CN(c1ncnc3c1CC(=O)N(c1cc(O)cc4ccccc14)C3)C2 [Example 114, 4-(6-acryloyl-2,6-diazaspiro[3.3]heptan-2-yl)-7-(3-hydroxynaphthalen-1-yl)-7,8-dihydropyrido[3,4-d]pyrimidin-6(5H)-one]
0.1 to 1000 nM	C=CC(=O)N1CCN(c2nc(OCC(C)(C)N(C)C)nc3c2CCN(c2cccc4ccccc24)C3)CC1CC#N (stereo not drawn) [Example 397, 2-(1-acryloyl-4-(2-(2-(dimethylamino)-2-methylpropoxy)-7-(naphthalen-1-yl)-5,6,7,8-tetrahydropyrido[3,4-d]pyrimidin-4-yl)piperazin-2-yl)acetonitrile]
> 1000 nM	C=CC(=O)N1CCN(c2nc(OCCN3CCC(C#N)CC3)nc3c2CCN(c2cc(O)cc4ccccc24)C3)CC1 [Example 81, 1-(2-((4-(4-acryloylpiperazin-1-yl)-7-(3-hydroxynaphthalen-1-yl)-5,6,7,8-tetrahydropyrido[3,4-d]pyrimidin-2-yl)oxy)ethyl)piperidine-4-carbonitrile]
0.1 to 1000 nM	C=CC(=O)N1CCN(c2nc(OC[C@@H]3CCCN3C)nc3c2CCN(c2cccc4cccn24)C3)C[C@@H]1CC#N [Example 442, 2-((S)-1-acryloyl-4-(7-(indolizin-5-yl)-2-(((S)-1-methylpyrrolidin-2-yl)methoxy)-5,6,7,8-tetrahydropyrido[3,4-d]pyrimidin-4-yl)piperazin-2-yl)acetonitrile]
0.1 to 1000 nM	C=CC(=O)N1CCN(c2nc(OCCN3CCCCC3)nc3c2CCN(c2cccc4cccc(Cl)c24)C3)C[C@@H]1CC#N [Example 362, 2-[(2S)-4-[7-(8-chloro-1-naphthyl)-2-[2-(1-piperidyl)ethoxy]-6,8-dihydro-5H-pyrido[3,4-d]pyrimidin-4-yl]-1-prop-2-enoyl-piperazin-2-yl]acetonitrile]
> 1000 nM	Cc1cccc2cccc(N3CCc4c(nc(OC[C@@H]5CCCN5C)nc4N4CCN(C(=O)/C=C/c5cnn(C)c5)[C@@H](CC#N)C4)C3)c12 [Example 494, 2-((S)-1-((E)-3-(1-methyl-1H-pyrazol-4-yl)acryloyl)-4-(7-(8-methylnaphthalen-1-yl)-2-(((S)-1-methylpyrrolidin-2-yl)methoxy)-5,6,7,8-tetrahydropyrido[3,4-d]pyrimidin-4-yl)piperazin-2-yl)acetonitrile]
> 1000 nM	C=CC(=O)N1CCN(c2nc(O[C@H](C)CN(C)C)nc3c2CCN(c2cc(O)cc(OC(F)(F)F)c2)C3)CC1 [Example 91, (R)-1-(4-(2-((1-(dimethylamino)propan-2-yl)oxy)-7-(3-hydroxy-5-(trifluoromethoxy)phenyl)-5,6,7,8-tetrahydropyrido[3,4-d]pyrimidin-4-yl)piperazin-1-yl)prop-2-en-1-one]
0.1 to 1000 nM	C=CC(=O)N1CCN(c2nc(OC[C@@H]3CCCN3C)nc3c2CCN(c2cc(OC)cc4ccccc24)C3)C[C@@H]1CC#N [Example 314, 2-[(2S)-4-[7-(3-methoxy-1-naphthyl)-2-[[(2S)-1-methylpyrrolidin-2-yl]methoxy]-6,8-dihydro-5H-pyrido[3,4-d]pyrimidin-4-yl]-1-prop-2-enoyl-piperazin-2-yl]acetonitrile]
0.1 to 1000 nM	C=CC(=O)N1CCN(c2nc(OC[C@@H]3CCCN3C)nc3c2CCN(c2cccc(F)c2C(F)(F)F)C3)C[C@@H]1CC#N [Example 328]
> 1000 nM	C=CC(=O)N1CCN(c2nc(OC[C@@H]3CCCN3C)nc3c2CCN(c2ccccc2CC(F)(F)F)C3)CC1CC#N (stereo partly drawn) [Example 374, 2-(1-acryloyl-4-(2-(((S)-1-methylpyrrolidin-2-yl)methoxy)-7-(2-(2,2,2-trifluoroethyl)phenyl)-5,6,7,8-tetrahydropyrido[3,4-d]pyrimidin-4-yl)piperazin-2-yl)acetonitrile]
> 1000 nM	C=CC(=O)N1CCN(c2nc(OCCCN3CCOCC3)nc3c2CCN(c2cc(O)ccc2C)C3)CC1 [Example 105, 1-(4-(7-(5-hydroxy-2-methylphenyl)-2-(3-morpholinopropoxy)-5,6,7,8-tetrahydropyrido[3,4-d]pyrimidin-4-yl)piperazin-1-yl)prop-2-en-1-one]
0.1 to 1000 nM	C=CC(=O)N1CCN(c2nc(OC[C@@H]3CCCN3C)nc3c2CCN(c2c(C)ccc4cn[nH]c24)C3)CC1CC#N (stereo partly drawn) [Example 238]
> 1000 nM	C=CC(=O)N1CCN(c2nc(OC[C@@H]3CCCC(=O)N3)nc3c2CCN(c2cc(O)cc4ccccc24)C3)CC1 (single isomer, unassigned) [Example 61]
> 1000 nM	C=CC(=O)N1CCN(c2nc(OCC3CCN(CCO)C3)nc3c2CCN(c2cc(O)cc4ccccc24)C3)CC1 (stereo not drawn) [Example 141, 1-[4-[2-[[1-(2-hydroxyethyl)pyrrolidin-3-yl]methoxy]-7-(3-hydroxy-1-naphthyl)-6,8-dihydro-5H-pyrido[3,4-d]pyrimidin-4-yl]piperazin-1-yl]prop-2-en-1-one]
0.1 to 1000 nM	C=CC(=O)N1CCN(c2nc(OCCCN3C[C@@H]4C[C@H]3CO4)nc3c2CCN(c2cc(O)cc4ccccc24)C3)CC1CC#N (stereo partly drawn) [Example 153, 2-[4-[7-(3-hydroxy-1-naphthyl)-2-[3-[(1S,4S)-2-oxa-5-azabicyclo[2.2.1]heptan-5-yl]propoxy]-6,8-dihydro-5H-pyrido[3,4-d]pyrimidin-4-yl]-1-prop-2-enoyl-piperazin-2-yl]acetonitrile]
> 1000 nM	C=CC(=O)N1C[C@H](C)N(c2nc(OC[C@@H]3CCCN3C)nc3c2CCN(c2cccc4ccccc24)C3)C[C@@H]1CC#N [Example 368, 2-((2S,5S)-1-acryloyl-5-methyl-4-(2-(((S)-1-methylpyrrolidin-2-yl)methoxy)-7-(naphthalen-1-yl)-5,6,7,8-tetrahydropyrido[3,4-d]pyrimidin-4-yl)piperazin-2-yl)acetonitrile]
> 1000 nM	C=CC(=O)N1CCN(c2nc(OC[C@@H]3CCCN3C)nc3c2CCN(c2cccc4ccccc24)C3)CC1 [Example 200, (S)-1-(4-(2-((1-methylpyrrolidin-2-yl)methoxy)-7-(naphthalen-1-yl)-5,6,7,8-tetrahydropyrido[3,4-d]pyrimidin-4-yl)piperazin-1-yl)prop-2-en-1-one]
0.1 to 1000 nM	C=CC(=O)N1CCN(c2nc(OC[C@@H]3CCCN3C)nc3c2CCN(c2cc(O)cc4ccccc24)C3)[C@@H](C)C1 [Example 202, 1-((S)-4-(7-(3-hydroxynaphthalen-1-yl)-2-(((S)-1-methylpyrrolidin-2-yl)methoxy)-5,6,7,8-tetrahydropyrido[3,4-d]pyrimidin-4-yl)-3-methylpiperazin-1-yl)prop-2-en-1-one]
> 1000 nM	C=CC(=O)N1CCN(c2nc(O[C@@H](C)CN(C)C)nc3c2CCN(c2cc(O)cc4ccccc24)C3)CC1 [Example 8, (S)-1-(4-(2-((1-(dimethylamino)propan-2-yl)oxy)-7-(3-hydroxynaphthalen-1-yl)-5,6,7,8-tetrahydropyrido[3,4-d]pyrimidin-4-yl)piperazin-1-yl)prop-2-en-1-one]
0.1 to 1000 nM	C=CC(=O)N1CCN(c2nc(OCC3CCN(C4CC4)C3)nc3c2CCN(c2cc(O)cc4ccccc24)C3)CC1 (stereo not drawn) [Example 190, 1-(4-(2-((1-cyclopropylpyrrolidin-3-yl)methoxy)-7-(3-hydroxynaphthalen-1-yl)-5,6,7,8-tetrahydropyrido[3,4-d]pyrimidin-4-yl)piperazin-1-yl)prop-2-en-1-one]

Structure (SMILES)	IC50
C=CC(=O)N1CCN(c2nc(OC[C@H]3CCCN3C)nc3c2CCN(c2cccc4ccccc24)C3)C[C@@H]1CC#N [Example 441, 2-((S)-1-acryloyl-4-(2-(((R)-1-methylpyrrolidin-2-yl)methoxy)-7-(naphthalen-1-yl)-5,6,7,8-tetrahydropyrido[3,4-d]pyrimidin-4-yl)piperazin-2-yl)acetonitrile]	0.1 to 1000 nM

Source: US10689377B2 (Mirati Therapeutics, Inc., priority 2017, dated 2020)
